Reference: patent US9828375B2, “4-position substituted pyrazolopyrimidine derivative, and use thereof in drug preparation” (Guangxi Wuzhou Pharmaceuticals (Group) Co., Ltd., priority 2012, dated 2017)

Assays:
[1] = test system: Abl/Abl (T315I)(h); test: Kinase inhibition activity test, isotope labeling: Abl; type: biochemical, human; details: test compound at a concentration of 10 μM
Experimental: (§1) The purpose of this experiment was to test the inhibitory activity of the compound of the invention for in vitro kinase with the isotope labeling method (the γ phosphate group on ATP was labeled). In this experiment, the in vitro activity inhibition of such kinases as FLT3, VEGFR2, FLT1, FLT4, RET, c-RAF, B-RAF, c-KIT, PDGFα, PDGFβ, FGFR2, FGFR1, EphA2, EphB2, SRC, ABL, ALK and Met was tested respectively. Staurosporine was reference molecule (or referred to as positive control). The kinase inhibition activity of the test compound was expressed by half-inhibitory concentration (IC50) or the kinase activity inhibition rate of the test compound at a concentration of 10 μM. The IC50 value could be obtained by calculating the kinase activity inhibition rate of the test compound at different concentrations.
(§2) 20 mM 3-(N-morpholinyl)propanesulfonic acid (MOPS); 1 mM ethylenediaminetetraacetic acid (EDTA), 0.01% Brij 35 (Brij-35), 5% glycerol, 0.1% mercaptoethanol, 1 mg/mL bovine serum albumin (BSA), 10 mM manganous dichloride solution (MnCl2), 0.1 mg/mL glutamic acid/tyrosine (4:1) polypeptide (poly(Glu, Tyr)4:1), 50 μM EAIYAAPFAKKK (substrate of FLT3), 0.33 mg/mL myelin basic protein (substrate of VEGFR2), 250 μM KKKSPGEYVNIEFG (substrate of FLT1(h)), 500 μM GGEEEEYFELVKKKK (substrate of FLT4(h)), 250 μM KKKSPGEYVNIEFG (substrate of RET), 0.66 mg/mL myelin basic protein (substrate of C-RAF), 250 μM GGMEDIYFEFMGGKKK (substrate of c-Kit), 250 μM GGMEDIYFEFMGGKKK (substrate of PDGFα), 250 μM KKKSPGEYVNIEFG (substrate of FGFR1), […] GGEEEEYFELVKKKK (substrate of SRC), 50 μM EAIYAAPFAKKK (substrate of ABL), 250 μM KKKSPGEYVNIEFG (substrate of ALK), 250 μM KKKSPGEYVNIEFG (substrate of Met(h)), 10 mM magnesium acetate and γ-^33 P-ATP solution, stop buffer (3% phosphate buffer), washing buffer (75 mM phosphate solution), methanol, Filtermat A membrane, FLT3, VEGFR2, FLT3, VEGFR2, FLT1, FLT4, RET, c-RAF, B-RAF, c-KIT, PDGFRα, PDGFRβ, FGFR2, FGFR1, EphA2, EphB2, SRC, ABL, ALK, Met and other kinases, and the test compounds.
(§3) Buffers (8 mM MOPS with pH value of 7.0, 0.2 mM EDTA and 10 mM MnCl2), (5-10 mU) kinases to be tested (FLT3, VEGFR2, FLT1, FLT4, RET, c-RAF, B-RAF, c-KIT, PDGFRα, PDGFRβ, FGFR2, FGFR1, EphA2, EphB2, SRC, ABL, ALK and Met), substrates of kinases to be tested (refer to experimental materials), 10 mM magnesium acetate and γ-^33 P-ATP solution, and test compounds at different concentrations were added to a reaction tube orderly. […] Reaction was terminated with 5 μL 3% phosphate buffer finally, and 10 μL reaction solution was titrated to the Filtermat A membrane; solution was washed for 3 times with 75 mM phosphate solution with each time lasting 5 minutes, and then washed once with methanol. Finally, the Filtermat A membrane was dried, and scintillation counting was performed on the membrane, with scintillation count reflecting the phosphorylation degree of the substrates, so that the activity inhibition of kinase could be characterized.

[2] = test system: human thyrophyma cell line TT; test: In vitro tumor cell proliferation inhibition (MTT): TT; type: cell-based
Description: The purpose of the experiment was to test the inhibition activity of the compounds of the invention for in vitro human tumor cell proliferation by the methyl thiazolyl tetrazolium (MTT) colorimetry.
Main reagents: RPMI-1640, fetal bovine serum, pancreatin, etc. were purchased from Gibco BRL Company (Invitrogen Corporation, USA) and IMDM medium that was purchased from American Type Culture Collection (ATCC). Methyl thiazolyl tetrazolium (MTT) and dimethyl sulfoxide (DMSO) were products from Sigma Company (USA). Pyrazolopyrimidine derivatives were composed by the inventor. During in vitro experiment, 100% DMSO was prepared into 10 mM storage solution, the solution was stored in a refrigerator at −20° C. for future use, and was diluted to the required concentration with complete culture solution before use.
Cell line and culture: Human leukemia cell line MV4-11, Jurkat, K562, human thyrophyma cell line TT, human gastric carcinoma cell line MKN-45, human malignant melanoma cell lines A375 and A875, human pancreatic carcinoma cell line panc-1, human cervical carcinoma cell line HELA, human colorectal carcinoma cell line HCT116, etc. were purchased from American type culture collection and were preserved by this laboratory. All leukemia cell lines (except MV4-11), gastric carcinoma cell lines and thyrophyma cell lines were cultured in RPMI-1640 complete medium containing 10% fetal bovine serum, 100 U/mL penicillin and 100 μg/mL streptomycin at 37° C. in 5% CO2. The remaining cell lines were cultured in DMEM complete medium containing 10% fetal bovine serum (containing 20% MV4-11 cell), 100 U/mL penicillin and 100 µg/mL streptomycin at 37° C. in 5% CO2.
Cell suspension with cell concentration of 1-2×10^4/mL was adjusted with the complete cell medium and inoculated in a 96-well plate, with each well filled with 200 μl cell suspension that was cultured overnight. On the next day, supernatant was sucked and abandoned (supernatant was sucked upon centrifugation of suspension cells), and then cells were processed with test compounds at gradient concentrations respectively. Meanwhile, a negative control group free from drug and a solvent control group with equal volume were set, and the DMSO concentration was 0.1%. Each dose group was provided with three wells and cultured at 37° C. in 5% CO2. After 72 hours, 20 μl 5 mg/mL MTT reagent was added to each well, and cultured for another 2 to 4 hours, the supernatant was abandoned; 150 μL DMSO was added to each well again, vibrated and mixed evenly for 15 minutes; the absorbance (A) values (proportional to living cell amount) were determined with a microplate reader (λ=570 nm) and averaged. […] Experiment was repeated for 3 times at least. Experimental data were expressed with means, data statistics were tested by t, and P<0.05 means that difference has a statistical significance. The cell proliferation inhibition effects of all compounds as follows are expressed by IC50 or inhibition rate.

[3] = target: PDGFRβ (Homo sapiens, UniProt P09619); test: Kinase inhibition activity test, isotope labeling: PDGFRβ; type: biochemical; details: ATP 200 μM; read-out: PDGFRβ IC50 value (inhibitory activity value)
PDGFRβ, sequence (P09619 33-1106): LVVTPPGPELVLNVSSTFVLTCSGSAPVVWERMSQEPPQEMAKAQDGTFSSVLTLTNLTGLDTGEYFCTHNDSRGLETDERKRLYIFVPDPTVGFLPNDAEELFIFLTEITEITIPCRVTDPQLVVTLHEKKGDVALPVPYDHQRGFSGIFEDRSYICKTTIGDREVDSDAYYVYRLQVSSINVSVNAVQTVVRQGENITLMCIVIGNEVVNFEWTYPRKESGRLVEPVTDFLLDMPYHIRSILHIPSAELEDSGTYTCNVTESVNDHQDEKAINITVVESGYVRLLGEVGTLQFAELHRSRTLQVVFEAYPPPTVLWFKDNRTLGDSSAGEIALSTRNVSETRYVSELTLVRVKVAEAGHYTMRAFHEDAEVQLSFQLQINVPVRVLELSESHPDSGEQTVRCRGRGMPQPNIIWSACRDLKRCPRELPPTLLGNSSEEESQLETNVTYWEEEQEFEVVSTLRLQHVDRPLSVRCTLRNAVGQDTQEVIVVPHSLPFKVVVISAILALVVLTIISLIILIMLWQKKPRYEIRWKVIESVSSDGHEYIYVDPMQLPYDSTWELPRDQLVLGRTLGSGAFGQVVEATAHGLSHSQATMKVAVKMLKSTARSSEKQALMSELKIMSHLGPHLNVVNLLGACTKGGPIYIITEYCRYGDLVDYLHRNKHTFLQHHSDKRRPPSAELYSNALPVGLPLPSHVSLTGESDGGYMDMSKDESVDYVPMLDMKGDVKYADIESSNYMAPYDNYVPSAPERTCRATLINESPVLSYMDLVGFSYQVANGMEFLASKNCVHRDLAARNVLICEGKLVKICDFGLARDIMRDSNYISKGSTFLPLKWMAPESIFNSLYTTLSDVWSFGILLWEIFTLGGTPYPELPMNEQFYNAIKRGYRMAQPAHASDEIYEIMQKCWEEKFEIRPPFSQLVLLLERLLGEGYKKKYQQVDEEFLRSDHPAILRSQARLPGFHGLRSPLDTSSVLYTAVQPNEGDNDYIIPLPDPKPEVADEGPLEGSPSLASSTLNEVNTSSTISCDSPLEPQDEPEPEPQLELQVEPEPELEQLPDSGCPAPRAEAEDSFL
Experimental: as §1, §2
as §3, with “Finally, the Filtermat A membrane was dried, and scintillation counting was performed on the membrane, with scintillation count reflecting the phosphorylation degree of the substrates, so that the activity inhibition of kinase could be characterized.” left out

[4] = target: FGFR1 (Homo sapiens, UniProt P11362); test: Kinase inhibition activity test, isotope labeling: FGFR1; type: biochemical; details: ATP 200 μM; read-out: FGFR1 IC50 value (inhibitory activity value)
FGFR1, sequence (P11362 22-822): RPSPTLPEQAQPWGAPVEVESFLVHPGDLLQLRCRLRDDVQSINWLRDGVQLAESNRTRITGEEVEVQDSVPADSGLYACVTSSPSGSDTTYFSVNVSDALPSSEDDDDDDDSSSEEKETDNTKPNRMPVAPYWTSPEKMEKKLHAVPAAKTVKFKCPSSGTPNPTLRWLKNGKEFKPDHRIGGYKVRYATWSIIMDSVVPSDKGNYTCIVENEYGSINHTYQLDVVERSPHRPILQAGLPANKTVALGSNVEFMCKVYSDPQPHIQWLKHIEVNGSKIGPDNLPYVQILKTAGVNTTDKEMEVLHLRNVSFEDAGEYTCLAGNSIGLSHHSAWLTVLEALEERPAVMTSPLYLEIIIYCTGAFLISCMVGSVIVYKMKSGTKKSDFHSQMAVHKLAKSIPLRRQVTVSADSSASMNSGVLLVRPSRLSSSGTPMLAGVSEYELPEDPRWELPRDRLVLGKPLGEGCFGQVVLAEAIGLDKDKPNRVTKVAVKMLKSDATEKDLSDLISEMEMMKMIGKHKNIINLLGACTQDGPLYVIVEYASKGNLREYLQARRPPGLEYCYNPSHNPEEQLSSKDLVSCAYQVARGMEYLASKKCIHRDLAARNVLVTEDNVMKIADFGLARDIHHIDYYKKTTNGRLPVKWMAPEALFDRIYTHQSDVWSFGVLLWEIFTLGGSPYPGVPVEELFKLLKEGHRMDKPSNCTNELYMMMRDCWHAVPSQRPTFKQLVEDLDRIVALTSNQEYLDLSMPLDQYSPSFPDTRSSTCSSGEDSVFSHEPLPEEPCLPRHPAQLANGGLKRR
Experimental: as §1, §2
as §3, with “Finally, the Filtermat A membrane was dried, and scintillation counting was performed on the membrane, with scintillation count reflecting the phosphorylation degree of the substrates, so that the activity inhibition of kinase could be characterized.” left out

Molecule	Activity inhibition rate Abl/Abl (T315I)(h) [1] [%]	IC50 ([2]; Homo sapiens, 72 h) [nM]	IC50 [3] [nM]	IC50 [4] [nM]	IC50 ([2]; 72 hours) [nM]
1-(4-((1H-pyrazolopyrimidine-4-yl)oxy)-3-fluorophenyl)-3-(3-trifluoromethoxy)phenyl)urea [4a-8]	34	–	–	–	–
1-(4-((1H-pyrazolopyrimidine-4-yl)oxy)phenyl)-3-(methylcyclohexyl)urea [4a-20]	19	–	–	–	–
O=C(Nc1ccc(Oc2ncnc3[nH]ncc23)cc1)Nc1ccc(C(F)(F)F)cc1 [4a-1]	17	< 50000	–	–	–
O=C(Nc1ccc(Oc2ncnc3[nH]ncc23)cc1)Nc1ccc(Cl)c(C(F)(F)F)c1 [4a-2]	86	–	408	< 10000	3420
O=C(Nc1ccc(Oc2ncnc3[nH]ncc23)cc1)Nc1cccc(C(F)(F)F)c1 [4a-6]	79	312	184	2250	–
CC(C)c1cccc(NC(=O)Nc2ccc(Oc3ncnc4[nH]ncc34)c(F)c2)c1 [4a-7, 1-(4-((1H-pyrazolopyrimidine-4-yl)oxy)-3-fluorophenyl)-3-(3-isopropylphenyl)urea]	60	–	–	–	–
O=C(Nc1ccc(C(F)(F)F)cc1)Nc1ccc(Oc2ncnc3[nH]ncc23)c(F)c1 [4a-9, 1-(4-((1H-pyrazolopyrimidine-4-yl)oxy)-3-fluorophenyl)-3-(4-(trifluoromethyl)phenyl)urea]	15	–	–	–	1630
O=C(Nc1ccc(Oc2ncnc3[nH]ncc23)c(F)c1)Nc1ccc(Cl)c(C(F)(F)F)c1 [4a-10, 1-(4-((1H-pyrazolopyrimidine-4-yl)oxy)-3-fluorophenyl)-3-(4-chloro-3-(trifluoromethyl)phenyl)urea]	67	–	–	–	–
O=C(Nc1ccc(Oc2ncnc3[nH]ncc23)cc1)Nc1cc(C(F)(F)F)cc(C(F)(F)F)c1 [4a-12, 1-(4-((1H-pyrazolopyrimidine-4-yl)oxy)phenyl)-3-(3,5-bis(trifluoromethyl)phenyl)urea]	78	–	–	–	–
O=C(Nc1ccc(Oc2ncnc3[nH]ncc23)cc1)Nc1ccc(C(F)(F)F)cc1Cl [4a-13]	27	–	–	–	3000 to 10000
O=C(Nc1ccccc1)Nc1ccc(Oc2ncnc3[nH]ncc23)cc1 [4a-15, 1-(4-((1H-pyrazolopyrimidine-4-yl)oxy)phenyl)-3-phenylurea]	99	–	–	–	–
C[C@H](NC(=O)Nc1ccc(Oc2ncnc3[nH]ncc23)cc1)c1ccccc1 [4a-18, (S)-1-(4-((1H-pyrazolopyrimidine-4-yl)oxy)phenyl)-3-(1-phenethyl)urea]	45	–	–	–	–
C[C@@H](NC(=O)Nc1ccc(Oc2ncnc3[nH]ncc23)cc1)c1ccccc1 [4a-19, (R)-1-(4-((1H-pyrazolopyrimidine-4-yl)oxy)phenyl)-3-(1-phenethyl)urea]	21	–	–	–	–
CC(C)(C)c1cc(NC(=O)Nc2ccc(Oc3ncnc4[nH]ncc34)cc2)n(-c2ccccc2)n1 [4a-24]	>50	–	–	–	1550
CC(C)(C)c1cc(NC(=O)Nc2ccc(Oc3ncnc4[nH]ncc34)cc2)on1 [4a-25]	>50	–	< 10000	< 10000	1020
CC(C)(C)c1cc(NC(=O)Nc2ccc(Oc3ncnc4[nH]ncc34)cc2)no1 [4a-26]	>50	2120	–	–	–
O=C(Nc1ccc(Oc2ncnc3[nH]ncc23)cc1)Nc1cc(C(F)(F)F)on1 [4a-28]	>50	3000 to 10000	–	–	–
CC(C)(C)c1cc(NC(=O)Nc2ccc(Oc3ncnc4[nH]ncc34)c(F)c2)no1 [4a-31]	>50	–	< 10000	< 10000	943
O=C(Nc1ccc(NC(=O)N2C=NC=C3NNC=C32)cc1)Nc1ccc(Cl)c(C(F)(F)F)c1 [4b-5, 1-(4-(1H-pyrazolopyrimidine-4-amido)phenyl)-3-(4-chloro-3-(trifluoromethyl)phenyl)urea]	–	9480	–	–	–
O=C(Nc1ccc(Sc2ncnc3[nH]ncc23)cc1)Nc1ccc(C(F)(F)F)cc1 [4c-1]	>30	–	–	–	–
O=C(Nc1ccc(Sc2ncnc3[nH]ncc23)cc1)Nc1cccc(C(F)(F)F)c1 [4c-2]	>30	–	–	–	7890
CC(C)(C)c1cc(NC(=O)Nc2ccc(Sc3ncnc4[nH]ncc34)cc2)no1 [4c-3, 1-(4-(1H-pyrazolopyrimidine-4-sulfydryl)phenyl)-3-(5-tert-butylisoxazol-3-yl)urea]	>30	–	–	–	3000 to 10000
CC(C)n1ncc2c(Oc3ccc(NC(=O)Nc4cc(C(C)(C)C)on4)cc3)ncnc21 [5a-4, 1-(5-tert-butylisoxazol-3-yl)-3-(4-(1-isopropyl-(1H-pyrazolopyrimidine-4-yl)oxy)phenyl)urea]	–	9890	–	–	–
